Here are results for two compounds from paper PMC5421877, “SOCS3 inhibits the pathological effects of IL-22 in non-melanoma skin tumor-derived keratinocytes” (Oncotarget, 2017).

The test system of test [1] is SCC-cell lines (CAL27 and CAL33). Nature of the test: CyQUANT proliferation assay, SCC-cell lines. Format: cell-based. The note with it: PD98059 20 μM or S3I-201 10 μM, 48 h. Here is the method: (§1) Figure 6 IL-22-induced proliferation and migration of healthy and transformed keratinocytes is counteracted by KIR-ESS peptide (A) Healthy KC, CAL27 and CAL33 cultures were plated in 96-well plates in quadruplicate for each condition. After 1 day, cells were pre-treated or not with Ctrl1 or KIR-ESS peptides (40 μM), or S31-201 ([…]) and PD98059 ([…]) chemical inhibitors, and, then, stimulated or not with 50 ng/ml of IL-22. Data relative to 48-h treatment are shown and expressed as the values of fluorescence intensity obtained from untreated and IL-22-treated ± SD. Three independent experiments were performed. *p < 0.01. […] (C) Cell-free area was measured and indicated as residual wound. […]
(§2) SOCS1- and SOCS3 stably transfected keratinocytes or cultured keratinocytes previously transfected with SOCS3 or control siRNA were seeded in 96-well plates (1.5–2.0 × 10^4 cells/well), and, the day after, starved in medium without serum. At 60% confluence, cells were treated with 75 ng/ml of IL-22 for 3 days, stained with 0.5% crystal violet (Bio-Rad, Hercules, CA, USA), and then analyzed in an ELISA reader (model 3550 UV ELISA reader; Bio-Rad). […] After 1-h pre-incubation, cells were treated with IL-22 or left unstimulated, cultured for other 24, 48 and 72 h, and the number of viable cells determined by CyQUANT Cell Proliferation Assay, accordingly to manufacture's protocol. […]

In another test the test system is CAL33 cells. As to the kind of experiment: Scratch assay (migration), CAL33. The class given is cell-based. To be noted: CAL33; 40 μM peptide, PD98059 20 μM or S3I-201 10 μM; IL-22 50 ng/ml, 24 h. The method, then:
(§3) Figure 6 IL-22-induced proliferation and migration of healthy and transformed keratinocytes is counteracted by KIR-ESS peptide (A) Healthy KC, CAL27 and CAL33 cultures were plated in 96-well plates in quadruplicate for each condition. After 1 day, cells were pre-treated or not with Ctrl1 or KIR-ESS peptides (40 μM), or S31-201 ([…]) and PD98059 ([…]) chemical inhibitors, and, then, stimulated or not with 50 ng/ml of IL-22. Data relative to 48-h treatment are shown and expressed as the values of fluorescence intensity obtained from untreated and IL-22-treated ± SD. Three independent experiments were performed. *p < 0.01. (B) Scratch assays were carried out on healthy or SCC-lines, pre-incubated with mitomycin C (5 mg/ml), pre-treated with Ctrl1 or KIR-ESS peptides (40 μM), or S31-201 ([…]) or PD98059 ([…]) chemical inhibitors, and, then, stimulated or not with IL-22 for 24 h. Microscopic images were taken immediately after and 24 h after wound induction on confluent cell layers. Initial scratches (0 h) are dashed blank. (C) Cell-free area was measured and indicated as residual wound. Data are reported as healed wound (gray area of bars) vs residual wound (white area of bars) which a value of 100% was given. *p < 0.01.
(§4) Cultured keratinocytes and SCC cell lines were grown at 100% confluence on type IV collagen (20 μg/ml), and then incubated with mitomycin C (5 mg/ml) (Sigma-Aldrich) for 1 h. Cell monolayers were scratched with the tip of a p-200 pipette to create uniform cell-free zones, and, then, pre-treated with appropriate concentrations of SOCS3 mimetic or control peptides, or with 10 μM STAT3 (S3I-201, Santa Cruz) and 20 μM Erk1/2 (PD98059, Calbiochem) inhibitors for 1 h, before treating by 50 ng/ml of IL-22. Microscopy pictures were taken with a digital camera at different time points following IL-22 treatment. The residual gap between migrating keratinocytes was measured with a computer-assisted image analysis system (Axiovision; Zeiss, Oberkochen, Germany), and expressed as percentage of the initial scratched area.

A further test has as its system CAL27 cells. Nature of the test: Scratch assay (migration), CAL27. The class given is cell-based. The note with it: 24 h. The method, then: as §3, §4
The test system of another test is healthy keratinocytes. Nature of the test: CyQUANT proliferation assay, healthy keratinocytes. Format: cell-based, human. The note with it: healthy KC; PD98059 20 μM or S3I-201 10 μM, 48 h. The method, then: as §1, §2
Test [2] relates to SOCS3 expression in SCC and BCC skin tumor lines. Nature of the test: SOCS3 mRNA and protein induction in SCC or BCC tumor cells. Format: cell-based. To be noted: SCC (CAL27, CAL33) and BCC (M77015) lines, 3 h mRNA, 6 h protein. The method, then: (§5) Figure 4 SOCS3 and SOCS1 are poorly expressed in the epidermis of NMSC lesions and are not induced in transformed keratinocytes by IL-22 (A) Immunohistochemistry for SOCS3 and SOCS1 (red staining) was performed respectively on frozen or paraffin-embedded sections from biopsies of healthy skin (i), NLS (ii, iii) and LS (iv, v) areas of BCC and SCC, specimens. Psoriatic skin biopsies were also analyzed (vi). Sections were counterstained with Mayer's H&E and were visually evaluated by an pathologist experienced in dermatology. One out of four representative staining is shown. Scale bars, 50 mm. (B) Graphs show SOCS3 and SOCS1 mRNA levels which were detected by real-time PCR analysis in cultured SCC (CAL27 and CAL33) and BCC (M77015) skin tumor lines left untreated or stimulated with IL-22 or IFN-γ for 3 h and normalized for β-actin mRNA expression levels. All data were obtained from three independent experiments. […] SOCS1 was detected by IP using a specific anti-SOCS1 Ab, whereas SOCS3 by WB with an anti-SOCS3 Ab. […] Densitometric intensity (D.I.) of SOCS1 or SOCS3/β-actin was calculated from three independent experiments and numerically expressed as D. I. Ratio. *p < 0.01; **p < 0.05. […] SOCS3 and phospho-Tyr STAT3 levels were detected by WB and normalized to β-actin levels. […]

The subject of test [3] is SOCS1 expression in keratinocytes and SCC/BCC lines. Nature of the test: SOCS1 mRNA and protein induction. Format: cell-based. The note with it: all cell lines, 3 h mRNA, 6 h protein. The method, then:
as §5

In test [4] the test system is SOCS3 expression in healthy keratinocytes. Nature of the test: SOCS3 mRNA and protein induction in healthy keratinocytes. Format: cell-based, human. The note with it: healthy keratinocytes, 3 h mRNA, 6 h protein. The method, then:
Figure 1 IL-22 induces SOCS3, which limits STAT3 and Erk1/2 activation (A) Keratinocyte cultures (n = 3) were stimulated with IL-22 or not for 10 min and protein lysates were subjected to immunoprecipitation and WB analyses for basal and phospho-IL-22R1, Tyk2 or Jak1. (B) WB of time-course experiments were performed on keratinocyte cultures (n = 3) to evaluate basal STAT3, Erk1/2 and MEK or phosphor-STAT3 (Tyr705 and Ser 727), phosphor-Erk1/2 and phospho-MEK. Anti-β-actin Ab was used to normalize sample loading. (C) SOCS mRNA and protein levels were detected by real-time PCR or WB analyses in cultured keratinocytes prepared from healthy skin (n = 3) left untreated or stimulated with IL-22 for the indicated time periods and normalized with β-actin values. (D) HaCaT cells stably transfected with myc-tagged SOCS1 (n = 4), SOCS2 (n = 2) and SOCS3 (n = 4) genes or control plasmids (mock, n = 3) were left untreated or stimulated with IL-22 for 15 min or 3 h and lysates subjected to WB with anti-phospho STAT3 (Tyr705), -phospho STAT3 (Ser727), -STAT3, -phospho Erk, -Erk, -c-myc and -β-actin Abs, as indicated. (E) Keratinocyte cultures were transiently transfected with siRNA specific for SOCS3 or control siRNA (NC). After 48-h transfection, cells were stimulated with IL-22 or not for the indicated time periods. In RNA interference experiments, data were obtained by three independent experiments, and SOCS3 depletion was assessed by real-time PCR and WB. […] Data are expressed as ratio of densitometric intensity (D. I.) of phosphorylated and unphosphorylated STAT3 and Erk1/2 proteins. p < 0.05 (*) values were considered significant.
as §5, with “One out of four representative staining is shown. Scale bars, 50 mm.” left out, “levels.” for “levels. All data were obtained from three independent experiments.”

In the case of `Cc1ccc(S(=O)(=O)OCC(=O)Nc2ccc(C(=O)O)c(O)c2)cc1` [S3I-201], the “proliferation (effect relative to KIR-ESS)” value is “KIR-ESS effect was similar to that observed in all healthy and transformed keratinocyte cultures” in test [1]; “KIR-ESS effect was similar to that observed in all healthy and transformed keratinocyte cultures” with healthy keratinocytes. Besides, the “wound closure, IL-22-treated” value was “effect similar to those obtained with the chemical Erk1/2 and STAT3 inhibitors” in the test on CAL33 cells; “effect similar to those obtained with the chemical Erk1/2 and STAT3 inhibitors” in the test on CAL27 cells (CAL27, 40 μM peptide, PD98059 20 μM or S3I-201 10 μM, IL-22 50 ng/ml). Further, the “wound closure / migration, resting cells” value in the test on CAL27 cells (CAL27, without IL-22, 40 μM peptide or S31-201 10 μM) is given as “efficacious in inhibiting migration of CAL27 cells”.

In the case of IFN-γ: cytokine stimulus, R&D Systems, the “SOCS3 mRNA and protein expression” value in test [2] and in test [4] was “significantly up-regulated by IFN-γ in all cell lines” in each case. Besides, the “SOCS1 mRNA and protein expression” value in test [3] is “significantly up-regulated by IFN-γ in all cell lines both at transcriptional and protein level, with the exception of SOCS1 protein in the BCC lines”.
